In article PMC5727165, “A switch in nucleotide affinity governs activation of the Src and Tec family kinases” (Scientific Reports, 2017):
Where a chain is given by its changes, count along the chain named. Read-outs that look alike come from different tables or passages of the source.

Experiments:
[1] = biological target: T1, Src^32KΔC L255A (Mus musculus, UniProt P05480, L257A); test: Differential scanning fluorimetry (thermal stability vs nucleotide concentration); assay type: binding
T1 construct: mouse Src^85-523 (Src^32KΔC); GST (cleaved yes); made in house; host or cells: baculovirus-infected Sf9 insect cells
Description: (§1) Figure 3 An allosteric switch triggers nucleotide exchange. (a) Hydrophobic stack conservation in Src family kinases. The table illustrates the amino acid identity at each of the three positions in the hydrophobic stack in addition to the invariant tryptophan (Trp260 in Src) for all Src family kinase members. The positions are presented according to their N- to C-terminal order in the primary sequences. Where it was not possible to unambiguously determine the identity of the amino acid contributed by the SH2-kinase variable linker (V3), the residue is denoted by a question mark. (b) Small angle X-ray scattering of Itk^32K L351A (black). The scattering curve for wild type Itk^32K (cyan) is overlaid for comparison. […] (c) Rigid body modelling of Itk^32K L351A and fit to ab initio molecular envelope. Displacement of both the SH3 and SH2 domains is required for a good fit to the experimental scattering curve. (d) Determination of the binding constants of Itk^32K L351A for nucleotides by fluorescence anisotropy. […] (e) Determination of the thermal stabilities and relative binding affinities of non-phosphorylated Src^32KΔC L255A for nucleotides by differential scanning fluorimetry. […] TEXT PRINTED IN THE PICTURE: (d) Mant-ADP: Itk^32K L351A (non-phos) Kd (μM): 21.0 ± 2.1 | (d) Mant-ATP: Itk^32K L351A (non-phos) Kd (μM): 31.7 ± 2.7 | (e) ADP: Src^32KΔC L255A (non-phos) [nuc]1/2 (μM): 310 ± 20; Src^32KΔC L255A (non-phos) Tm^max (°C): 52.9; Src^32KΔC L255A (non-phos) ΔTm^max (°C): + 6.8 | (e) ATP: Src^32KΔC L255A (non-phos) [nuc]1/2 (μM): 100 ± 10; Src^32KΔC L255A (non-phos) Tm^max (°C): 54.2; Src^32KΔC L255A (non-phos) ΔTm^max (°C): + 8.1 | (e) apo: Src^32KΔC L255A (non-phos) Tm^max (°C): 46.1
Due to limiting protein concentrations, we were unable to obtain a binding curve by fluorescence anisotropy, so we instead used thermal stability measurements to investigate its nucleotide-binding properties. Determination of accurate binding constants from thermal stability measurements requires knowledge of the enthalpy of unfolding. However, for a given protein, the enthalpy of unfolding is independent of the ligand being tested, so comparison of the concentrations of nucleotide required for half maximal stabilisation is valid.
Thermal stabilities as a function of nucleotide concentration were measured by differential scanning fluorimetry (DSF). Samples contained 0.1 mg/ml protein in 50 mM Tris pH 7.5, 150 mM NaCl, 1 mM TCEP, and 5 mM MgCl2 with ADP, ATP, or AMPPNP concentrations ranging from 0–16 mM. Samples were measured in triplicate using a BioRad iQ™5 Multicolor Real-Time PCR Detection System. For detection of phosphorylated protein, samples were diluted and 1 ng and 15 ng were loaded to SDS-PAGE for Src and Itk proteins, respectively. Phosphorylation was measured by immunoblot.

[2] = biological target: T2, Itk^32K L351A (Homo sapiens, UniProt Q08881, L351A); test: Fluorescence anisotropy binding of Mant-labelled nucleotides
T2 construct: Human Itk^171–620 (Itk^32K); GST (cleaved yes); made in house; host or cells: baculovirus-infected Sf9 insect cells
T2 sequence (Q08881 171-620 L351A): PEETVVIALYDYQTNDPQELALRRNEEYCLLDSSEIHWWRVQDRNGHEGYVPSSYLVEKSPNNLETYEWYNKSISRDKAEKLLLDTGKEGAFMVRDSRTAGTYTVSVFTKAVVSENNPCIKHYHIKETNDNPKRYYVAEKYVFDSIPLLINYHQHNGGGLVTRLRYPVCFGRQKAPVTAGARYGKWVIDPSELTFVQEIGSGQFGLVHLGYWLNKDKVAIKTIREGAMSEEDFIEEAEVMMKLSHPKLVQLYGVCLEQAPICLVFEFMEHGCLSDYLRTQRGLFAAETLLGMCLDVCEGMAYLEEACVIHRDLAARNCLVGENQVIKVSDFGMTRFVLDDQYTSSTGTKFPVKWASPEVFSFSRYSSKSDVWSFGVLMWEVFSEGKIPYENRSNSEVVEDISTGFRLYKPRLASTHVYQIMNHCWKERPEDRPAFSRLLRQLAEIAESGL
Description: as §1
To establish whether hydrophobic stack disassembly triggers a switch in nucleotide binding of the kinase domain, we measured the binding of both unphosphorylated and activation loop phosphorylated (pY511) Itk^32K L351A to ADP and ATP.
(§2) The binding constants for ADP and AMPPNP were determined for Src and Itk proteins by fluorescence anisotropy, using 2′/3′-Mant-labelled nucleotides (Jena Bioscience). Increasing concentrations of Itk^32K, Itk^L351A or Src^32K were incubated with 40 μM Mant-nucleotide in 30 mM Tris pH 7.5, 200 mM NaCl, 5 mM MgCl2, and 1 mM TCEP. Measurements were made with a Perkin Elmer LS50B fluorimeter (λex = 355 nm, λem = 447 nm) at 20 °C. For each data point 50–60 measurements, each with an integration time of 1 s, were averaged. For competition nucleotide displacement assays, 40–80 μM of protein was incubated with 40 μM Mant-ADP until equilibrium was established. Unlabelled nucleotide was titrated into the reaction and fluorescence anisotropy monitored. The equilibrium inhibition constant for the unlabelled nucleotide was calculated from the fitted curve.

[3] = biological target: T3, Src^32K (Mus musculus, UniProt P05480); test: as above; details: direct Mant-nucleotide binding
T3 construct: mouse Src^85-535 (Src^32K); GST (cleaved yes); made in house; host or cells: baculovirus-infected Sf9 insect cells, co-expressed with human Csk
Description: To characterise the nucleotide binding of Itk and Src, we purified recombinant wild type and mutant constructs of Itk and Src containing their respective SH3, SH2, and kinase domains (from here on referred to as Itk^32K, Src^32K, and Src^32KΔC, Fig. 1a). We confirmed the mass and homogeneity of isolated species by high-resolution anion exchange chromatography, intact mass spectrometry, and Western blotting with phospho-specific antibodies (Supplementary Figs 1–3). We performed fluorescence anisotropy measurements using Mant-labelled nucleotides. […] To avoid autophosphorylation during the course of the titration, we used the non-hydrolysable ATP analogue AMPPNP. […] Src^32K bound ADP approximately 6-fold more tightly than AMPPNP (Supplementary Fig. 4d).
Human Itk^171–620 (Itk^32K), mouse Src^85-535 (Src^32K), and mouse Src^85-523 (Src^32KΔC) as well as their respective point mutants were expressed as GST fusions in baculovirus-infected Sf9 insect cells. For the generation of Tyr527-phosphorylated Src^85-535, the protein was co-expressed with human Csk using pFastBac Dual (Invitrogen). Proteins were purified by sequential glutathione-sepharose affinity chromatography, TEV cleavage, high-resolution anion exchange, and size exclusion chromatography in a final buffer of 50 mM Tris, pH 7.5, 200 mM NaCl, 1 mM TCEP, 1% (v/v) glycerol.
as §2

[4] = biological target: T4, Itk^32K (Homo sapiens, UniProt Q08881); test: Competition nucleotide displacement assay (Mant-ADP, fluorescence anisotropy); assay type: binding
T4 construct: Human Itk^171–620 (Itk^32K); GST (cleaved yes); made in house; host or cells: baculovirus-infected Sf9 insect cells
T4 sequence (Q08881 171-620): T2 sequence (Q08881 171-620 L351A) with A181L
Description: Figure 1 Autoinhibited Itk and Src kinases preferentially bind ADP. (a) Schematic of constructs evaluated in this study. Itk^32K, Src^32K, and Src^32KΔC contain the conserved module of SH3, SH2, and kinase (^32K) domains. Src^32K was truncated by […] to remove its C-terminal tail (inclusive of the Y527 phosphorylation site), generating a construct we refer to as Src^32KΔC (ΔC-tail). (b) Competition nucleotide displacement assay for Itk^32K. 40 μM Itk^32K was incubated with 40 μM Mant-ADP until equilibrium was established. Unlabelled ADP or AMPPNP was titrated into the reaction and fluorescence anisotropy monitored. Comparison of the equilibrium inhibition constants (K i) gives an indication of the relative strength of nucleotide binding. […] (c) Competition nucleotide displacement assay for Src^32K. 40 μM tail-phosphorylated Src^32K (pY527) or doubly phosphorylated Src^32K pY416 (pY527) was incubated with 40 μM Mant-ADP until equilibrium was established. Unlabelled ADP or AMPPNP was titrated into the reaction and fluorescence anisotropy monitored. Solid lines correspond to Src^32K, dashed lines to Src^32K pY416. AMPPNP binds to Src^32K with 20-fold weaker affinity than ADP. […] (d) Omit map showing clear electron density for ADP and a single magnesium ion in the nucleotide-binding pocket of Src. The magnesium is coordinated by Asn391, Asp404, and the α- and β- phosphates of ADP. The β-phosphate is directly coordinated by the guanidinium side chain of Arg388. […]
Since the concentration of ATP in the cell is typically higher than ADP[33],[34], we performed nucleotide competition assays in order to determine which nucleotide is bound in vivo. We measured the concentrations of ADP or AMPPNP required to displace Mant-ADP. […]
The binding constants for ADP and AMPPNP were determined for Src and Itk proteins by fluorescence anisotropy, using 2′/3′-Mant-labelled nucleotides (Jena Bioscience). […] Unlabelled nucleotide was titrated into the reaction and fluorescence anisotropy monitored. The equilibrium inhibition constant for the unlabelled nucleotide was calculated from the fitted curve.

[5] = biological target: T5, Src^32KΔC (Mus musculus, UniProt P05480); test: as above; assay type: binding; details: 40 μM Src^32KΔC, 40 μM Mant-ADP; read-out: Ki (equilibrium inhibition constant)
T5 construct: mouse Src^85-523 (Src^32KΔC); GST (cleaved yes); made in house; host or cells: baculovirus-infected Sf9 insect cells
Description: Figure 2 Itk adopts a Src-like autoinhibited conformation. (a) Competition nucleotide displacement assay for Src^32KΔC. 40 μM Src^32KΔC was incubated with 40 μM Mant-ADP until equilibrium was established. Unlabelled ADP or AMPPNP was titrated into the reaction and fluorescence anisotropy monitored. […] (b) Small angle X-ray scattering curves for Itk^32K (cyan), Src^32K (magenta), Src^32KΔC (blue), and Src^32K R175L (green). […] (d) Table of physical parameters obtained from the scattering curves for Itk^32K, Src^32K, Src^32KΔC, and Src^32K R175L. (e)Ab initio model of Itk^32K and docking of autoinhibited Src (2SRC.pdb) into the molecular envelope. Two orientations of the envelope are shown for clarity. (f) Ab initio molecular envelope for Src^32KΔC illustrates the fit of the crystal structure of autoinhibited Src. TEXT PRINTED IN THE PICTURE: (a) ADP: Src^32KΔC Ki (mM): 0.03 ± 0.008 | (a) ANP: Src^32KΔC Ki (mM): 0.69 ± 0.140
as §2

[6] = Src^32KΔC L255A non-phosphorylated, DSF
[7] = Itk^32K L351A non-phosphorylated, read-out: Kd

In the case of Nc1ncnc2c1ncn2[C@@H]1O[C@H](COP(=O)(O)OP(=O)(O)OP(=O)(O)O)[C@@H](O)[C@H]1O [ATP], the “additional thermal stability conferred by ATP over ADP” value ([1]; Src^32KΔC L255A non-phosphorylated) is reported as 1.3 °C, the “Tm^max” value [1, 6] is reported as 54.2 °C and the “[nuc]1/2 (nucleotide concentration for half maximal stabilisation)” value [1, 6] is reported as 100 ± 10 µM. The “relative binding of ATP versus ADP” value ([1]; Src^32KΔC L255A, from half maximal stabilisation concentrations) was “approximately three times better than ADP” and the Kd ([2]; activation loop-phosphorylated (pTyr511) Itk^32K L351A, read-out: Kd (binding constant)) was 37 µM.
In the case of Nc1ncnc2c1ncn2[C@@H]1O[C@H](COP(=O)(O)OP(=O)(O)NP(=O)(O)O)[C@@H](O)[C@H]1O [AMPPNP], the “fold difference in affinity, ADP tighter than AMPPNP” value [3] is reported as “approximately 6 fold”, the Ki ([4]; 40 μM Itk^32K, 40 μM Mant-ADP, read-out: Ki (equilibrium inhibition constant)) is reported as 7900 µM and the “fold difference in Ki, AMPPNP weaker than ADP” value ([4]; Itk^32K, displacement of Mant-ADP) is reported as about 41 fold. For the same compound, the Ki [5] was 690 ± 140 µM.
With Mant-ATP the Kd [2, 7] was 31.7 ± 2.7 µM.
Mant-ADP showed a Kd [2, 7] of 21 ± 2.1 µM.
